The test system of one experiment is HIV-1 (strain IIIB). Kind of experiment: microbe, parasite or virus in culture. Particulars: lower line of each compound's entry, read-out: IC50 (MT-4 cells). The experiment is classed as cell-based.
In the next experiment the target is HIV-1 protease (Human immunodeficiency virus type 1 group M subtype B, UniProt P04585). Kind of experiment: biochemical.
The mark [1] stands for this setting: Human immunodeficiency virus 1, 120 h, MT4 cells infected with HIV-1 strain IIIB, 5 days.
The mark [2] stands for this setting: HIV-1 protease, upper line of each compound's entry, read-out: Ki (enzyme).
Setting [3] is: Human immunodeficiency virus 1, IIIB, MT4, 120 h, […].

Molecules are shown by their SMILES. Read-outs that look alike come from different tables or passages of the source. Where only a bound is given, the exact number is not on record here.

Usually IC50 stands for the midpoint of a concentration-inhibition curve. What is called Ki is the dissociation constant of the complex between target and ligand, obtained from inhibition or displacement.

Regarding `O=C(N[C@@H](Cc1ccccc1)[C@H](O)CN(OC1CCCC1)S(=O)(=O)c1cccc(OCC(=O)N2CCOCC2)c1)O[C@H]1CO[C@H]2OCC[C@H]21` [Compound 135, (3R,3aS,6aR)hexahydrofuro[2,3-b]furan-3-yl N-[(1S,2R)-1-benzyl-3-((cyclopentyloxy)[3-(2-morpholino-2-oxoethoxy)phenyl]sulfonylamino)-2-hydroxypropyl]carbamate], the IC50 in the experiment on HIV-1 (strain IIIB) (setting [1]) was not above 100 nM. Besides, the Ki at HIV-1 protease (setting [2]) lay in the range of 1 to 10 nM.

`NC(=O)COc1cccc(S(=O)(=O)N(C[C@@H](O)[C@H](Cc2ccccc2)NC(=O)OC2CO[C@H]3OCC[C@@H]23)OC2CCCC2)c1` (stereo partly drawn) [Compound 136, (3R,3aS,6aR)hexahydrofuro[2,3-b]furan-3-yl N-(1S,2R)-3-[[3-(2-amino-2-oxoethoxy)phenyl]sulfonyl(cyclopentyloxy)amino]-1-benzyl-2-hydroxypropylcarbamate]: the 50% inhibitory concentration (IC50) in the experiment on HIV-1 (strain IIIB) (setting [3]) is not above 100 nM. The Ki on HIV-1 protease (setting [2]) was less than 1 nM.

For `CON(C)C(=O)COc1cccc(S(=O)(=O)N(C[C@@H](O)[C@H](Cc2ccccc2)NC(=O)OC2CO[C@H]3OCC[C@@H]23)OC2CCCC2)c1` (stereo partly drawn) [Compound 137, (3R,3aS,6aR)hexahydrofuro[2,3-b]furan-3-yl N-((1S,2R)-1-benzyl-3-(cyclopentyloxy)[(3-2-[methoxy(methyl)amino]-2-oxoethoxyphenyl)sulfonyl]amino-2-hydroxypropyl)carbamate], the IC50 in the experiment with HIV-1 (strain IIIB) (setting [1]) was not above 100 nM. In addition, the Ki at HIV-1 protease (setting [2]) is less than 1 nM.

Consider `O=C(N[C@@H](Cc1ccccc1)[C@H](O)CN(OC1CCCC1)S(=O)(=O)c1ccc2c(c1)OCO2)OC1CO[C@H]2OCC[C@@H]12` (stereo partly drawn) [Compound 138, (3R,3aS,6aR)hexahydrofuro[2,3-b]furan-3-yl N-(1S,2R)-3-[(1,3-benzodioxol-5-ylsulfonyl)(cyclopentyloxy)amino)-1-benzyl-2-hydroxypropylcarbamate], for which the IC50 with HIV-1 (strain IIIB) (setting [1]) was not above 100 nM. The Ki at HIV-1 protease is less than 1 nM.

Regarding `O=C(N[C@@H](Cc1ccccc1)[C@H](O)CN(OC1CCCC1)S(=O)(=O)c1ccc2c(c1)OCCO2)OC1CO[C@H]2OCC[C@@H]12` (stereo partly drawn) [Compound 139, (3R,3aS,6aR)hexahydrofuro[2,3-b]furan-3-yl N-(1S,2R)-1-benzyl-3-[(cyclopentyloxy)(2,3-dihydro-1,4-benzodioxin-6-ylsulfonyl)amino]-2-hydroxypropylcarbamate], the IC50 in the experiment with HIV-1 (strain IIIB) (setting [1]) is not above 100 nM. The compound further came in with a Ki on HIV-1 protease of less than 1 nM.

As to `COc1ccc(S(=O)(=O)N(C[C@@H](O)[C@H](Cc2ccccc2)NC(=O)OC2CO[C@H]3OCC[C@@H]23)OC2CCCC2)cc1OC` (stereo partly drawn) [Compound 140, (3R,3aS,6aR)hexahydrofuro[2,3-b]furan-3-yl N-((1S, 2R)-1-benzyl-3-(cyclopentyloxy)[(3,4-dimethoxyphenyl)sulfonyl]amino-2-hydroxypropyl)carbamate], the IC50 with HIV-1 (strain IIIB) (setting [1]) is not above 100 nM. Further, the Ki at HIV-1 protease (setting [2]) is less than 1 nM.

`CC(C)Oc1ccc(S(=O)(=O)N(C[C@@H](O)[C@H](Cc2ccccc2)NC(=O)OC2CO[C@H]3OCC[C@@H]23)OC2CCCC2)cc1` (stereo partly drawn) [Compound 141, (3R,3aS,6aR)hexahydrofuro[2,3-b]furan-3-yl N-((1S,2R)-1-benzyl-3-(cyclopentyloxy)[(4-isopropoxyphenyl)sulfonyl]amino-2-hydroxypropyl)carbamate]: in the experiment with HIV-1 (strain IIIB) (setting [3]), the IC50 was more than 1000 nM. For the same compound, at HIV-1 protease (setting [2]), the Ki was less than 1 nM.

As for `CC(C)Oc1cccc(S(=O)(=O)N(C[C@@H](O)[C@H](Cc2ccccc2)NC(=O)OC2CO[C@H]3OCC[C@@H]23)OC2CCCC2)c1` (stereo partly drawn) [Compound 142, (3R,3aS,6aR)hexahydrofuro[2,3-b]furan-3-yl N-((1S,2R)-1-benzyl-3-(cyclopentyloxy)[(3-isopropoxyphenyl)sulfonyl]amino-2-hydroxypropyl)carbamate], the IC50 with HIV-1 (strain IIIB) (setting [3]) fell in the range of 100 to 500 nM. Besides, the Ki at HIV-1 protease (setting [2]) was less than 1 nM.

Regarding `O=C(N[C@@H](Cc1ccccc1)[C@@H](CN(OC1CCCC1)S(=O)(=O)c1ccc2c(c1)OCO2)OP(=O)(O)O)O[C@H]1CO[C@H]2OCC[C@H]21` [Compound 143, (3R,3aS,6aR)hexahydrofuro[2,3-b]furan-3-yl N-[(1S,2R)-3-[(1,3-benzodioxol-5-ylsulfonyl)(cyclopentyloxy)amino]-1-benzyl-2-(phosphonooxy)propyl]carbamate], the IC50 in the experiment with HIV-1 (strain IIIB) (setting [1]) was not above 100 nM. Besides, the Ki on HIV-1 protease (setting [2]) is less than 1 nM.

For the compound `O=C(N[C@@H](Cc1ccccc1)[C@@H](CN(OC1CCCC1)S(=O)(=O)c1ccc2c(c1)OCCO2)OP(=O)(O)O)O[C@H]1CO[C@H]2OCC[C@H]21` [Compound 144, (3R,3aS,6aR)hexahydrofuro[2,3-b]furan-3-yl N-[(1S,2R)-1-benzyl-3-[(cyclopentyloxy)(2,3-dihydro-1,4-benzodioxin-6-ylsulfonyl)amino]-2-(phosphonooxy)propyl]carbamate], the IC50 in the experiment with HIV-1 (strain IIIB) (setting [1]) was not above 100 nM. Besides, the Ki at HIV-1 protease was less than 1 nM.

As for `COc1ccc(S(=O)(=O)N(C[C@@H](O)[C@H](Cc2ccccc2)NC(=O)OC2CO[C@H]3OCC[C@@H]23)OCC(C)C)cc1` (stereo partly drawn) [Compound 145, (3R,3aS,6aR)hexahydrofuro[2,3-b]furan-3-yl N-((1S,2R)-1-benzyl-2-hydroxy-3-isobutoxy[(4-methoxyphenyl)sulfonyl]aminopropyl)carbamate], in the experiment on HIV-1 (strain IIIB) (setting [1]), the 50% inhibitory concentration (IC50) was not above 100 nM. Further, the Ki on HIV-1 protease is less than 1 nM.

In the case of `Nc1ccc(S(=O)(=O)N(C[C@@H](O)[C@H](Cc2ccccc2)NC(=O)O[C@H]2CO[C@H]3OCC[C@H]32)OC2CCOCC2)cc1` [Compound 146, (3R,3aS,6aR)hexahydrofuro[2,3-b]furan-3-yl 3-[[(4-aminophenyl)sulfonyl](tetrahydro-2H-pyran-4-yloxy)amino]-1-benzyl-2-hydroxypropylcarbamate], the IC50 in the experiment on HIV-1 (strain IIIB) (setting [1]) was not above 100 nM. Moreover, the Ki on HIV-1 protease (setting [2]) is less than 1 nM.

In the case of `Nc1cccc(S(=O)(=O)N(C[C@@H](O)[C@H](Cc2ccccc2)NC(=O)O[C@H]2CO[C@H]3OCC[C@H]32)OC2CCOCC2)c1` [Compound 147, (3R,3aS,6aR)hexahydrofuro[2,3-b]furan-3-yl 3-[[(3-aminophenyl)sulfonyl](tetrahydro-2H-pyran-4-yloxy)amino]-1-benzyl-2-hydroxypropylcarbamate], the IC50 in the experiment on HIV-1 (strain IIIB) (setting [3]) was not above 100 nM. The Ki at HIV-1 protease (setting [2]) is less than 1 nM.

For `O=C(N[C@@H](Cc1ccccc1)[C@H](O)CN(OC1CCOCC1)S(=O)(=O)c1cccc(O)c1)O[C@H]1CO[C@H]2OCC[C@H]21` [Compound 148, (3R,3aS,6aR)hexahydrofuro[2,3-b]furan-3-yl 1-benzyl-2-hydroxy-3-[[(3-hydroxyphenyl)sulfonyl](tetrahydro-2H-pyran-4-yloxy)amino]propylcarbamate], the concentration for half-maximal inhibition (IC50) with HIV-1 (strain IIIB) (setting [1]) is not above 100 nM. Besides, the Ki at HIV-1 protease (setting [2]) is less than 1 nM.

`O=C(N[C@@H](Cc1ccccc1)[C@H](O)CN(OC1CCOCC1)S(=O)(=O)c1ccc(O)cc1)O[C@H]1CO[C@H]2OCC[C@H]21` [Compound 149, (3R,3aS,6aR)hexahydrofuro[2,3-b]furan-3-yl 1-benzyl-2-hydroxy-3-[[(4-hydroxyphenyl)sulfonyl](tetrahydro-2H-pyran-4-yloxy)amino]propylcarbamate]: the half-maximal inhibitory concentration (IC50) in the experiment with HIV-1 (strain IIIB) (setting [1]) was not above 100 nM. The Ki at HIV-1 protease (setting [2]) was less than 1 nM.

Regarding `O=C(N[C@@H](Cc1ccccc1)[C@H](O)CN(OC1CCOCC1)S(=O)(=O)c1ccc2c(c1)OCCO2)O[C@H]1CO[C@H]2OCC[C@H]21` [Compound 150, (3R,3aS,6aR)hexahydrofuro[2,3-b]furan-3-yl 1-benzyl-3-[(2,3-dihydro-1,4-benzodioxin-6-ylsulfonyl)(tetrahydro-2H-pyran-4-yloxy)amino]-2-hydroxypropylcarbamate], the IC50 with HIV-1 (strain IIIB) (setting [1]) is not above 100 nM. Also, the Ki at HIV-1 protease (setting [2]) was less than 1 nM.

With `O=C(N[C@@H](Cc1ccccc1)[C@H](O)CN(OC1CCOCC1)S(=O)(=O)c1ccc2c(c1)OCO2)O[C@H]1CO[C@H]2OCC[C@H]21` [Compound 151, (3R,3aS,6aR)hexahydrofuro[2,3-b]furan-3-yl 3-[(1,3-benzodioxol-5-ylsulfonyl)(tetrahydro-2H-pyran-4-yloxy)amino]-1-benzyl-2-hydroxypropylcarbamate], the IC50 in the experiment on HIV-1 (strain IIIB) (setting [3]) was not above 100 nM. For the same compound, on HIV-1 protease (setting [2]), the Ki was less than 1 nM.

`Nc1ccc(S(=O)(=O)N(C[C@@H](O)[C@H](Cc2ccccc2)NC(=O)O[C@H]2CO[C@H]3OCC[C@H]32)OC2CCCCC2)cc1` [Compound 153, (3R,3aS,6aR)hexahydrofuro[2,3-b]furan-3-yl(1S,2R)-3-[[(4-aminophenyl)sulfonyl](cyclohexyloxy)amino]-1-benzyl-2-hydroxypropylcarbamate]: the IC50 in the experiment on HIV-1 (strain IIIB) (setting [1]) is not above 100 nM. Besides, the Ki on HIV-1 protease (setting [2]) is less than 1 nM.

Consider `Nc1cccc(S(=O)(=O)N(C[C@@H](O)[C@H](Cc2ccccc2)NC(=O)O[C@H]2CO[C@H]3OCC[C@H]32)OC2CCCCC2)c1` [Compound 154, (3R,3aS,6aR)hexahydrofuro[2,3-b]furan-3-yl(1S,2R)-3-[[(3-aminophenyl)sulfonyl](cyclohexyloxy)amino]-1-benzyl-2-hydroxypropylcarbamate], for which the IC50 in the experiment with HIV-1 (strain IIIB) (setting [1]) was not above 100 nM. For the same compound, the Ki at HIV-1 protease (setting [2]) is less than 1 nM.

With `O=C(N[C@@H](Cc1ccccc1)[C@H](O)CN(OC1CCCCC1)S(=O)(=O)c1ccc2c(c1)OCO2)O[C@H]1CO[C@H]2OCC[C@H]21` [Compound 155, (3R,3aS,6aR)hexahydrofuro[2,3-b]furan-3-yl(1S,2R)-3-[(1,3-benzodioxol-5-ylsulfonyl)(cyclohexyloxy)amino]-1-benzyl-2-hydroxypropylcarbamate], in the experiment on HIV-1 (strain IIIB) (setting [1]), the IC50 was not above 100 nM. The Ki on HIV-1 protease (setting [2]) is less than 1 nM.

Take `O=C(N[C@@H](Cc1ccccc1)[C@H](O)CN(OC1CCCCC1)S(=O)(=O)c1ccc2c(c1)OCCO2)O[C@H]1CO[C@H]2OCC[C@H]21` [Compound 156, (3R,3aS,6aR)hexahydrofuro[2,3-b]furan-3-yl(1S,2R)-1-benzyl-3-[(cyclohexyloxy)(2,3-dihydro-1,4-benzodioxin-6-ylsulfonyl)amino]-2-hydroxypropylcarbamate]: the IC50 with HIV-1 (strain IIIB) (setting [1]) was not above 100 nM. Also, at HIV-1 protease (setting [2]), the inhibition constant Ki is less than 1 nM.

(Values after patent US20040097594A1 (priority 1998, published 2004).)
